Results published in PubChem BioAssay (NCI).
Several values for one entry are separate records, joined by “and”; a condition that tells them apart may be missing. Equal entries are not always repeated.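 Grown in 96-well plates, cells were treated for 48 hours with each compound at five concentrations. Insufficient inhibition: endpoint recorded as highest concentration tested. GI50 is the concentration that inhibits growth by half. TGI denotes the concentration required for complete inhibition of growth.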

Legend:
Experiment in all cases: NCI anticancer screen, dose series, 48 h
[1] = system: MALME-3M melanoma
[2] = system: UO-31 renal
[3] = system: HL-60(TB) leukemia
[4] = system: SK-OV-3 ovarian
[5] = system: NCI-H226 lung
[6] = system: COLO 205 colon
[7] = system: A498 renal
[8] = system: OVCAR-4 ovarian
[9] = system: RPMI-8226 leukemia
[10] = system: SK-MEL-5 melanoma

Compound `C=CCOn1c(C=C)nc2ccc(C)cc21` has a TGI [1] of 38.9 µM, a TGI [2] of 27.4 µM and a TGI [3] of 22.2 µM. It also gave a TGI [4] of over 100 µM, a TGI [5] of 37.5 µM and a TGI [6] of 26.9 µM. The TGI [7] was 43.6 µM, the TGI [8] was over 100 µM and the TGI [9] was 24.9 µM. The TGI [10] was 31.4 µM.

`COc1cccc(N[C@@H]2c3cc4c(cc3C(c3cc(OC)c(O)c(OC)c3)[C@H]3C(=O)OCC32)OCO4)c1` (some centres undefined) showed a TGI [1] of 20.7 µM, a TGI [2] of 9.78 µM and a TGI [3] of 0.487 µM. The TGI [4] was 17.9 µM, the TGI [5] was 2.05 µM and the TGI [6] was 7.39 µM. It also gave a TGI [7] of 2.1 µM, a TGI [8] of 87.9 µM and a TGI [9] of 2.08 µM. The TGI [10] was 3.04 µM.

In the case of `CC1=C2C(=CO[C@H](C)[C@H]2C)C(=O)C(C(=O)O)=C1O`, the GI50 [1] is reported as 21 µM, the TGI [1] is reported as 54.4 µM and 115 µM and the GI50 [2] is reported as 22.3 µM. The TGI [2] was 106 µM and 50.6 µM, the GI50 [3] was 25.3 µM and the TGI [3] was 59 µM and 25.7 µM. For the same compound, the GI50 [4] was 28 µM, the TGI [4] was 88 µM and 150 µM and the GI50 [5] was 18.4 µM. The TGI [5] was 59.9 µM and 47.4 µM, the GI50 [6] was 22.1 µM and the TGI [6] was 77.3 µM and 45.8 µM. For the same compound, the GI50 [7] was 32.7 µM, the TGI [8] was > 80.5 µM and 87.5 µM and the GI50 [9] was 25.4 µM. The TGI [9] was 63.3 µM and 58.3 µM, the GI50 [10] was 20.4 µM and the TGI [10] was 35.7 µM and 45.4 µM.

For `C=C(C)[C@H]1C2=CC(C)=C(O2)[C@@H](O[C@@H]2c3oc(cc3C)[C@H](C(=C)C)[C@H]3C=C(CC[C@H]2C(=C)C)C(=O)O3)[C@H](C(=C)C)CCC2=C[C@H]1OC2=O`, the TGI [1] was over 100 µM, the TGI [2] was over 100 µM and the TGI [3] was over 100 µM. For the same compound, the TGI [4] was over 100 µM, the TGI [5] was over 100 µM and the TGI [6] was over 100 µM. It also gave a TGI [7] of over 100 µM, a TGI [8] of over 100 µM and a TGI [9] of over 100 µM. The TGI [10] was over 100 µM.

`C#CCn1c(=O)c(C)cn(/C(=C\C(=O)OCC)C(=O)OCC)c1=O` showed a TGI [1] of 5.6 µM, a TGI [2] of 25.5 µM and a TGI [3] of over 100 µM. The TGI [4] was over 56.4 µM, the TGI [5] was 36.1 µM and the GI50 [6] was 1.52 µM. It also gave a TGI [6] of 3.12 µM, a TGI [7] of 40.8 µM and a TGI [8] of 6.35 µM. The TGI [9] was over 23.2 µM and the TGI [10] was over 100 µM.

Compound `CC1(C)CC2(CC(C)(C)N1O)NC(=O)OC2=O` has a TGI [1] of over 100 µM, a TGI [2] of over 100 µM and a TGI [3] of over 100 µM. The TGI [4] was over 100 µM, the TGI [5] was over 100 µM and the TGI [6] was over 100 µM. The TGI [7] was over 100 µM, the TGI [8] was over 100 µM and the TGI [9] was over 100 µM. The TGI [10] was over 100 µM.

`O=c1oc(C(C(F)(F)F)C(F)(F)F)nc2ccccc12` was tested, and the TGI [1] was over 100 µM, the TGI [2] was over 100 µM and the TGI [3] was over 100 µM. It also gave a TGI [4] of over 100 µM, a TGI [5] of over 100 µM and a TGI [6] of over 100 µM. For the same compound, the TGI [7] was over 100 µM, the TGI [8] was over 100 µM and the TGI [9] was over 100 µM. The TGI [10] was over 100 µM.

`c1ccc(CN2CCC(Nc3ccccc3)(c3nnnn3Cc3ccccc3)CC2)cc1` gave a TGI [1] of 34.9 µM, a TGI [2] of 26.6 µM and a TGI [3] of 25.9 µM. It also gave a TGI [4] of over 100 µM, a TGI [5] of over 100 µM and a TGI [6] of 28.9 µM. It also gave a TGI [7] of 63.8 µM, a TGI [8] of over 100 µM and a TGI [9] of over 100 µM. For the same compound, the TGI [10] was 25.6 µM.

Compound `COc1cc(C2C3=C(COC3=O)Oc3cc4c(cc32)OCO4)cc(OC)c1O` (centres undefined) has a TGI [1] of 39.5 µM, a TGI [2] of 49.6 µM and a TGI [3] of 0.294 µM. It also gave a TGI [4] of 1.48 µM, a TGI [5] of 0.215 µM and a TGI [6] of 0.0776 µM. The TGI [7] was 6.75 µM, the TGI [8] was 47.8 µM and the TGI [9] was over 41.9 µM. It also gave a TGI [10] of under 0.0187 µM.

Work on `O=C1CC(=O)n2cnc3cccc(c32)N1` yielded a TGI [1] of over 100 µM, a TGI [2] of over 100 µM and a TGI [3] of over 100 µM. The TGI [4] was over 100 µM, the TGI [5] was over 100 µM and the TGI [6] was over 100 µM. It also gave a TGI [7] of over 100 µM, a TGI [8] of over 100 µM and a TGI [9] of over 100 µM. It also gave a TGI [10] of over 100 µM.

`Cc1nnc2n1N=C(c1ccc(Cl)cc1Cl)/C(=C/c1ccc(-c3ccc([N+](=O)[O-])cc3Cl)o1)S2` showed a GI50 [1] of 21.2 µM, a TGI [1] of 56.1 µM and a GI50 [2] of 14.8 µM. It also gave a TGI [2] of 31 µM, a GI50 [3] of 25.1 µM and a TGI [3] of 62.9 µM. For the same compound, the GI50 [4] was over 100 µM, the TGI [4] was over 100 µM and the GI50 [5] was 20.7 µM. For the same compound, the TGI [5] was 41.1 µM, the GI50 [6] was 54.8 µM and the TGI [6] was over 100 µM. It also gave a GI50 [7] of 31.7 µM, a TGI [7] of 95.8 µM and a GI50 [8] of 33.4 µM. The TGI [8] was over 100 µM, the GI50 [9] was 10.2 µM and the TGI [9] was 24.9 µM. For the same compound, the GI50 [10] was 16.5 µM and the TGI [10] was 32.6 µM.

For `CC(C)(C)CC(C)(C)c1cc(O)c(O)c(CN2CCCCC2)c1`, the TGI [1] was 25.9 µM, the TGI [2] was 26.1 µM and the TGI [3] was 31.6 µM. For the same compound, the TGI [4] was 34.8 µM, the TGI [5] was 32 µM and the TGI [6] was 25.3 µM. For the same compound, the TGI [7] was 27.3 µM, the TGI [8] was 42 µM and the TGI [9] was 30.6 µM. For the same compound, the TGI [10] was 28.9 µM.

Work on `CCc1cc2c(c3c1CCCC3=O)CC1(Cc3ccc(C(=O)OC)cc3C1)C2` (centres undefined) yielded a TGI [1] of over 100 µM, a TGI [2] of over 100 µM and a TGI [3] of 55.4 µM. The TGI [4] was over 100 µM, the TGI [5] was over 100 µM and the TGI [6] was over 100 µM. For the same compound, the TGI [7] was over 100 µM, the TGI [8] was over 100 µM and the TGI [9] was 91 µM. For the same compound, the TGI [10] was 30.1 µM.

`NCc1cccc(O)c1O` was tested, and the TGI [1] was over 100 µM, the TGI [2] was over 100 µM and the TGI [3] was over 100 µM. It also gave a TGI [4] of over 100 µM, a TGI [5] of over 100 µM and a TGI [6] of over 100 µM. It also gave a TGI [7] of over 100 µM, a TGI [8] of over 100 µM and a TGI [9] of over 100 µM. For the same compound, the TGI [10] was over 100 µM.

With `COc1cnc2c(c1)C(=O)c1c-2n(CCCNCCO)c(=O)c2ccncc12` the GI50 [1] was 1.1 µM, the TGI [1] was 2.82 µM and the GI50 [2] was 1.3 µM. It also gave a TGI [2] of 10.1 µM, a GI50 [3] of 2.74 µM and a TGI [3] of 11.4 µM. For the same compound, the GI50 [4] was 3.94 µM, the TGI [4] was 61.3 µM and the GI50 [5] was 0.601 µM. For the same compound, the TGI [5] was 3.65 µM, the GI50 [6] was 0.82 µM and the TGI [6] was 9.05 µM. The GI50 [7] was 0.772 µM, the TGI [7] was 2.62 µM and the GI50 [8] was 1.38 µM. The TGI [8] was 7.46 µM, the GI50 [9] was 1.85 µM and the TGI [9] was 7.58 µM. The GI50 [10] was 1.43 µM and the TGI [10] was 3.38 µM.
